Test results taken from the NIST ThermoML archive (doi:10.1021/je0504156).
± gives the expanded uncertainty stated by the source.

Experiment: xn = mol fraction of the nth substance listed
Conditions: 101 kPa, Liquid

## Cc1cccc(O)c1 [3-methylphenol] + OCCO
308.15 K, x1 = 0.0998
  mass density: 1088.36 ± 0.63 kg/m3
  viscosity: 11.72 ± 0.22 mPa·s
308.15 K, x1 = 0.1999
  mass density: 1077.36 ± 0.61 kg/m3
  viscosity: 12.32 ± 0.23 mPa·s
308.15 K, x1 = 0.3
  mass density: 1067.31 ± 0.6 kg/m3
  viscosity: 12.33 ± 0.23 mPa·s
308.15 K, x1 = 0.3996
  mass density: 1058.33 ± 0.59 kg/m3
  viscosity: 11.88 ± 0.22 mPa·s
308.15 K, x1 = 0.5
  mass density: 1050.38 ± 0.59 kg/m3
  viscosity: 11.2 ± 0.21 mPa·s
308.15 K, x1 = 0.5967
  mass density: 1043.44 ± 0.59 kg/m3
  viscosity: 10.37 ± 0.2 mPa·s
308.15 K, x1 = 0.7002
  mass density: 1036.6 ± 0.59 kg/m3
  viscosity: 9.452 ± 0.18 mPa·s
308.15 K, x1 = 0.8
  mass density: 1031.15 ± 0.59 kg/m3
  viscosity: 8.695 ± 0.17 mPa·s
308.15 K, x1 = 0.8989
  mass density: 1026.2 ± 0.6 kg/m3
  viscosity: 8.03 ± 0.16 mPa·s
308.15 K, x1 = 1
  mass density: 1021.64 ± 0.61 kg/m3
  viscosity: 7.701 ± 0.15 mPa·s
313.15 K, x1 = 0.0998
  mass density: 1084.66 ± 0.62 kg/m3
  viscosity: 9.704 ± 0.18 mPa·s
313.15 K, x1 = 0.1999
  mass density: 1073.58 ± 0.6 kg/m3
  viscosity: 10.13 ± 0.19 mPa·s
313.15 K, x1 = 0.3
  mass density: 1063.47 ± 0.59 kg/m3
  viscosity: 10.02 ± 0.19 mPa·s
313.15 K, x1 = 0.3996
  mass density: 1054.44 ± 0.58 kg/m3
  viscosity: 9.673 ± 0.18 mPa·s
313.15 K, x1 = 0.5
  mass density: 1046.47 ± 0.58 kg/m3
  viscosity: 9.067 ± 0.17 mPa·s
313.15 K, x1 = 0.5967
  mass density: 1039.51 ± 0.58 kg/m3
  viscosity: 8.417 ± 0.17 mPa·s
313.15 K, x1 = 0.7002
  mass density: 1032.66 ± 0.58 kg/m3
  viscosity: 7.67 ± 0.15 mPa·s
313.15 K, x1 = 0.8
  mass density: 1027.19 ± 0.58 kg/m3
  viscosity: 7.03 ± 0.14 mPa·s
313.15 K, x1 = 0.8989
  mass density: 1022.22 ± 0.59 kg/m3
  viscosity: 6.496 ± 0.14 mPa·s
313.15 K, x1 = 1
  mass density: 1017.63 ± 0.6 kg/m3
  viscosity: 6.12 ± 0.13 mPa·s
318.15 K, x1 = 0.0998
  mass density: 1080.98 ± 0.61 kg/m3
  viscosity: 8.113 ± 0.16 mPa·s
318.15 K, x1 = 0.1999
  mass density: 1069.79 ± 0.59 kg/m3
  viscosity: 8.371 ± 0.16 mPa·s
318.15 K, x1 = 0.3
  mass density: 1059.61 ± 0.58 kg/m3
  viscosity: 8.275 ± 0.16 mPa·s
318.15 K, x1 = 0.3996
  mass density: 1050.55 ± 0.57 kg/m3
  viscosity: 7.906 ± 0.16 mPa·s
318.15 K, x1 = 0.5
  mass density: 1042.56 ± 0.57 kg/m3
  viscosity: 7.441 ± 0.15 mPa·s
318.15 K, x1 = 0.5967
  mass density: 1035.59 ± 0.57 kg/m3
  viscosity: 6.893 ± 0.14 mPa·s
318.15 K, x1 = 0.7002
  mass density: 1028.7 ± 0.57 kg/m3
  viscosity: 6.322 ± 0.13 mPa·s
318.15 K, x1 = 0.8
  mass density: 1023.23 ± 0.57 kg/m3
  viscosity: 5.853 ± 0.12 mPa·s
318.15 K, x1 = 0.8989
  mass density: 1018.22 ± 0.58 kg/m3
  viscosity: 5.346 ± 0.12 mPa·s
318.15 K, x1 = 1
  mass density: 1013.6 ± 0.59 kg/m3
  viscosity: 5.022 ± 0.11 mPa·s
323.15 K, x1 = 0.0998
  mass density: 1077.28 ± 0.6 kg/m3
  viscosity: 6.869 ± 0.14 mPa·s
323.15 K, x1 = 0.1999
  mass density: 1065.98 ± 0.58 kg/m3
  viscosity: 7.015 ± 0.14 mPa·s
323.15 K, x1 = 0.3
  mass density: 1055.75 ± 0.57 kg/m3
  viscosity: 6.894 ± 0.14 mPa·s
323.15 K, x1 = 0.3996
  mass density: 1046.64 ± 0.56 kg/m3
  viscosity: 6.572 ± 0.14 mPa·s
323.15 K, x1 = 0.5
  mass density: 1038.63 ± 0.56 kg/m3
  viscosity: 6.182 ± 0.13 mPa·s
323.15 K, x1 = 0.5967
  mass density: 1031.63 ± 0.56 kg/m3
  viscosity: 5.763 ± 0.12 mPa·s
323.15 K, x1 = 0.7002
  mass density: 1024.74 ± 0.56 kg/m3
  viscosity: 5.27 ± 0.12 mPa·s
323.15 K, x1 = 0.8
  mass density: 1019.25 ± 0.57 kg/m3
  viscosity: 4.811 ± 0.11 mPa·s
323.15 K, x1 = 0.8989
  mass density: 1014.22 ± 0.57 kg/m3
  viscosity: 4.433 ± 0.099 mPa·s
323.15 K, x1 = 1
  mass density: 1009.56 ± 0.58 kg/m3
  viscosity: 4.158 ± 0.094 mPa·s
333.15 K, x1 = 0.0998
  mass density: 1069.86 ± 0.58 kg/m3
  viscosity: 5.133 ± 0.11 mPa·s
333.15 K, x1 = 0.1999
  mass density: 1058.35 ± 0.56 kg/m3
  viscosity: 5.087 ± 0.11 mPa·s
333.15 K, x1 = 0.3
  mass density: 1047.97 ± 0.55 kg/m3
  viscosity: 4.972 ± 0.11 mPa·s
333.15 K, x1 = 0.3996
  mass density: 1038.8 ± 0.54 kg/m3
  viscosity: 4.817 ± 0.11 mPa·s
333.15 K, x1 = 0.5
  mass density: 1030.72 ± 0.54 kg/m3
  viscosity: 4.45 ± 0.099 mPa·s
333.15 K, x1 = 0.5967
  mass density: 1023.71 ± 0.54 kg/m3
  viscosity: 4.145 ± 0.093 mPa·s
333.15 K, x1 = 0.7002
  mass density: 1016.76 ± 0.54 kg/m3
  viscosity: 3.794 ± 0.085 mPa·s
333.15 K, x1 = 0.8
  mass density: 1011.25 ± 0.55 kg/m3
  viscosity: 3.488 ± 0.079 mPa·s
333.15 K, x1 = 0.8989
  mass density: 1006.16 ± 0.56 kg/m3
  viscosity: 3.219 ± 0.073 mPa·s
333.15 K, x1 = 1
  mass density: 1001.44 ± 0.57 kg/m3
  viscosity: 2.98 ± 0.068 mPa·s
343.15 K, x1 = 0.0998
  mass density: 1060.26 ± 4 kg/m3
  viscosity: 3.81 ± 0.085 mPa·s
343.15 K, x1 = 0.1999
  mass density: 1048.59 ± 4 kg/m3
  viscosity: 3.82 ± 0.085 mPa·s
343.15 K, x1 = 0.3
  mass density: 1038.14 ± 4 kg/m3
  viscosity: 3.72 ± 0.083 mPa·s
343.15 K, x1 = 0.3996
  mass density: 1028.9 ± 4 kg/m3
  viscosity: 3.554 ± 0.08 mPa·s
343.15 K, x1 = 0.5
  mass density: 1020.81 ± 4 kg/m3
  viscosity: 3.332 ± 0.075 mPa·s
343.15 K, x1 = 0.5967
  mass density: 1013.76 ± 4 kg/m3
  viscosity: 3.096 ± 0.07 mPa·s
343.15 K, x1 = 0.7002
  mass density: 1006.79 ± 4 kg/m3
  viscosity: 2.858 ± 0.065 mPa·s
343.15 K, x1 = 0.8
  mass density: 1001.25 ± 4 kg/m3
  viscosity: 2.635 ± 0.061 mPa·s
343.15 K, x1 = 0.8989
  mass density: 996.13 ± 4 kg/m3
  viscosity: 2.426 ± 0.056 mPa·s
343.15 K, x1 = 1
  mass density: 991.33 ± 4 kg/m3
  viscosity: 2.231 ± 0.052 mPa·s
353.15 K, x1 = 0.0998
  mass density: 1055.21 ± 0.54 kg/m3
  viscosity: 2.995 ± 0.068 mPa·s
353.15 K, x1 = 0.1999
  mass density: 1043.24 ± 0.53 kg/m3
  viscosity: 2.967 ± 0.067 mPa·s
353.15 K, x1 = 0.3
  mass density: 1032.71 ± 0.51 kg/m3
  viscosity: 2.882 ± 0.065 mPa·s
353.15 K, x1 = 0.3996
  mass density: 1023.39 ± 0.51 kg/m3
  viscosity: 2.734 ± 0.062 mPa·s
353.15 K, x1 = 0.5
  mass density: 1015.21 ± 0.51 kg/m3
  viscosity: 2.566 ± 0.059 mPa·s
353.15 K, x1 = 0.5967
  mass density: 1008.1 ± 0.51 kg/m3
  viscosity: 2.401 ± 0.055 mPa·s
353.15 K, x1 = 0.7002
  mass density: 1001.08 ± 0.51 kg/m3
  viscosity: 2.237 ± 0.052 mPa·s
353.15 K, x1 = 0.8
  mass density: 995.5 ± 0.53 kg/m3
  viscosity: 2.048 ± 0.048 mPa·s
353.15 K, x1 = 0.8989
  mass density: 990.32 ± 0.56 kg/m3
  viscosity: 1.901 ± 0.045 mPa·s
353.15 K, x1 = 1
  mass density: 985.42 ± 0.58 kg/m3
  viscosity: 1.759 ± 0.042 mPa·s
